In brackets after ≈: the same amount, converted by molar mass.
Assays:
[1] = physchem; conditions: water, pH 7
Description: Solubility of the compound in water at pH 7.0 by HPLC

[2] = system: Mycobacterium tuberculosis; assay: microbe, parasite or virus in culture; conditions: H37Rv
[3] = system: Mycobacterium tuberculosis; assay: microbe, parasite or virus in culture; conditions: H37Rv; remark: listed apart in the source
Description: Antitubercular activity against Mycobacterium tuberculosis H37Rv by LORA method

[4] = physchem; conditions: water, pH 1
Description: Solubility of the compound in water at pH 1.0 by HPLC

[5] = in vitro; conditions: human, liver microsomes
Description: Metabolic stability in human liver microsomes assessed as compound remaining after 1 hr

[6] = in vitro; conditions: CD1, mouse, liver microsomes
Description: Metabolic stability in CD1 mouse liver microsomes assessed as compound remaining after 1 hr

Row | Compound | solubility [1] | MIC [2] | MIC [3] | solubility [4] | remaining at 1 h [5] | remaining at 1 h [6]
1 | N#Cc1ccc(-c2ccc(CO[C@@H]3COc4nc([N+](=O)[O-])cn4C3)cn2)cc1 | 2.9 µg/mL (≈ 7.68 µM) | 0.18 µM (≈ 0.0679 µg/mL) | 6 µM (≈ 2.26 µg/mL) | – | – | –
2 | O=[N+]([O-])c1cn2c(n1)OC[C@@H](OCc1ccc(-c3ccc(OC(F)F)cc3)nc1)C2 | 1.6 µg/mL (≈ 3.82 µM) | 0.02 µM (≈ 0.00837 µg/mL) | 3.4 µM (≈ 1.42 µg/mL) | – | – | –
3 | COc1ccc(-c2ccc(CO[C@@H]3COc4nc([N+](=O)[O-])cn4C3)cn2)cc1F | 2.1 µg/mL (≈ 5.25 µM) | 0.09 µM (≈ 0.036 µg/mL) | 1.9 µM (≈ 0.761 µg/mL) | – | – | –
4 | O=[N+]([O-])c1cn2c(n1)OC[C@@H](OCc1ccc(-c3ccc(OC(F)(F)F)cc3F)nc1)C2 | 2.2 µg/mL (≈ 4.84 µM) | 0.047 µM (≈ 0.0214 µg/mL) | 1.9 µM (≈ 0.863 µg/mL) | – | – | –
5 | O=[N+]([O-])c1cn2c(n1)OC[C@@H](OCc1ccc(-c3ccc(Cl)c(OC(F)(F)F)c3)nc1)C2 | 0.22 µg/mL (≈ 0.467 µM) | 0.18 µM (≈ 0.0847 µg/mL) | 2.4 µM (≈ 1.13 µg/mL) | – | – | –
6 | O=[N+]([O-])c1cn2c(n1)OC[C@@H](OCc1ccc(-c3ccc(C(F)(F)F)nc3)nc1)C2 | 7 µg/mL (≈ 16.6 µM) | 0.19 µM (≈ 0.0801 µg/mL) | 17 µM (≈ 7.16 µg/mL) | – | – | –
7 | O=[N+]([O-])c1cn2c(n1)OC[C@@H](OCc1ccc(-c3ccc(F)nc3)nc1)C2 | 51 µg/mL (≈ 137 µM) | 0.37 µM (≈ 0.137 µg/mL) | 13 µM (≈ 4.83 µg/mL) | – | – | –
8 | COc1ccc(-c2ccc(CO[C@@H]3COc4nc([N+](=O)[O-])cn4C3)cn2)cn1 | 51 µg/mL (≈ 133 µM) | 0.24 µM (≈ 0.092 µg/mL) | 7.3 µM (≈ 2.8 µg/mL) | – | – | –
9 | O=[N+]([O-])c1cn2c(n1)OC[C@@H](OCc1ccc(-c3ccc(C(F)(F)F)cc3)nn1)C2 | 5.4 µg/mL (≈ 12.8 µM) | 0.06 µM (≈ 0.0253 µg/mL) | 2.8 µM (≈ 1.18 µg/mL) | – | – | –
10 | N#Cc1ccc(-c2ccc(CO[C@@H]3COc4nc([N+](=O)[O-])cn4C3)nn2)cc1 | 22 µg/mL (≈ 58.1 µM) | 0.36 µM (≈ 0.136 µg/mL) | 13 µM (≈ 4.92 µg/mL) | – | – | –
11 | O=[N+]([O-])c1cn2c(n1)OC[C@@H](OCc1ccc(-c3ccc(F)cc3)nn1)C2 | 8.3 µg/mL (≈ 22.4 µM) | 0.19 µM (≈ 0.0706 µg/mL) | 5.6 µM (≈ 2.08 µg/mL) | – | – | –
12 | O=[N+]([O-])c1cn2c(n1)OC[C@@H](OCc1ccc(-c3ccc(OC(F)F)cc3)nn1)C2 | 1.3 µg/mL (≈ 3.1 µM) | 0.17 µM (≈ 0.0713 µg/mL) | 7.5 µM (≈ 3.15 µg/mL) | – | – | –
13 | COc1ccc(-c2ccc(CO[C@@H]3COc4nc([N+](=O)[O-])cn4C3)nn2)cc1F | 6.8 µg/mL (≈ 16.9 µM) | 0.25 µM (≈ 0.1 µg/mL) | 6.6 µM (≈ 2.65 µg/mL) | – | – | –
14 | O=[N+]([O-])c1cn2c(n1)OC[C@@H](OCc1ccc(-c3ccc(C(F)(F)F)nc3)nn1)C2 | 12 µg/mL (≈ 28.4 µM) | 0.55 µM (≈ 0.232 µg/mL) | 14 µM (≈ 5.91 µg/mL) | – | – | –
15 | COc1ccc(-c2ccc(CO[C@@H]3COc4nc([N+](=O)[O-])cn4C3)nn2)cn1 | 34 µg/mL (≈ 88.5 µM) | 0.72 µM (≈ 0.277 µg/mL) | 20 µM (≈ 7.69 µg/mL) | – | – | –
16 | O=[N+]([O-])c1cn2c(n1)OC[C@@H](OCc1cnc(-c3ccc(C(F)(F)F)cc3)cn1)C2 | 0.84 µg/mL (≈ 1.99 µM) | 0.08 µM (≈ 0.0337 µg/mL) | 0.97 µM (≈ 0.409 µg/mL) | – | – | –
17 | O=[N+]([O-])c1cn2c(n1)OC[C@@H](OCc1cnc(-c3ccc(F)cc3)cn1)C2 | 8.9 µg/mL (≈ 24 µM) | 0.085 µM (≈ 0.0316 µg/mL) | 2 µM (≈ 0.743 µg/mL) | – | – | –
18 | O=[N+]([O-])c1cn2c(n1)OC[C@@H](OCc1cnc(-c3ccc(OC(F)F)cc3)cn1)C2 | 5 µg/mL (≈ 11.9 µM) | 0.2 µM (≈ 0.0839 µg/mL) | 1.3 µM (≈ 0.545 µg/mL) | – | – | –
19 | O=[N+]([O-])c1cn2c(n1)OC[C@@H](OCc1cnc(-c3ccc(C(F)(F)F)nc3)cn1)C2 | 27 µg/mL (≈ 63.9 µM) | 0.33 µM (≈ 0.139 µg/mL) | 3.7 µM (≈ 1.56 µg/mL) | – | – | –
20 | O=[N+]([O-])c1cn2c(n1)OC[C@@H](OCc1ncc(-c3ccc(C(F)(F)F)cc3)cn1)C2 | 2.7 µg/mL (≈ 6.41 µM) | 0.06 µM (≈ 0.0253 µg/mL) | 3.5 µM (≈ 1.47 µg/mL) | – | – | –
21 | O=[N+]([O-])c1cn2c(n1)OC[C@@H](OCc1ncc(-c3ccc(F)cc3)cn1)C2 | 50 µg/mL (≈ 135 µM) | 0.13 µM (≈ 0.0483 µg/mL) | 12 µM (≈ 4.46 µg/mL) | – | – | –
22 | O=[N+]([O-])c1cn2c(n1)OC[C@@H](OCc1ncc(-c3ccc(OC(F)(F)F)cc3)cn1)C2 | – | 0.11 µM (≈ 0.0481 µg/mL) | 1.9 µM (≈ 0.831 µg/mL) | 5.1 µg/mL (≈ 11.7 µM) | 92% | 87%
23 | O=[N+]([O-])c1cn2c(n1)OC[C@@H](OCc1ncc(-c3ccc(OC(F)F)cc3)cn1)C2 | 7.8 µg/mL (≈ 18.6 µM) | 0.12 µM (≈ 0.0503 µg/mL) | 7.4 µM (≈ 3.1 µg/mL) | – | – | –
24 | O=[N+]([O-])c1cn2c(n1)OC[C@@H](OCc1ncc(-c3ccc(C(F)(F)F)nc3)cn1)C2 | 85 µg/mL (≈ 201 µM) | 0.28 µM (≈ 0.118 µg/mL) | 14 µM (≈ 5.91 µg/mL) | – | – | –
25 | O=[N+]([O-])c1cn2c(n1)OC[C@@H](OCc1cnc(-c3ccc(OC(F)F)cc3)nc1)C2 | 1.1 µg/mL (≈ 2.62 µM) | 0.13 µM (≈ 0.0545 µg/mL) | 4.4 µM (≈ 1.85 µg/mL) | – | – | –
26 | O=[N+]([O-])c1cn2c(n1)OC[C@@H](OCc1ccc(-c3ncc(C(F)(F)F)cc3Cl)cc1)C2 | 3.3 µg/mL (≈ 7.26 µM) | 0.025 µM (≈ 0.0114 µg/mL) | 1 µM (≈ 0.455 µg/mL) | 2 µg/mL (≈ 4.4 µM) | 86% | 80%
27 | O=[N+]([O-])c1cn2c(n1)OC[C@@H](OCc1ccc(-c3ccc(F)cn3)cc1)C2 | – | 0.035 µM (≈ 0.013 µg/mL) | 1.3 µM (≈ 0.481 µg/mL) | 275 µg/mL (≈ 743 µM) | 83% | 61%
28 | O=[N+]([O-])c1cn2c(n1)OC[C@@H](OCc1ccc(-c3ccc(F)nc3)cc1)C2 | 8 µg/mL (≈ 21.6 µM) | 0.095 µM (≈ 0.0352 µg/mL) | 2.1 µM (≈ 0.778 µg/mL) | 10 µg/mL (≈ 27 µM) | 88% | 79%
29 | O=[N+]([O-])c1cn2c(n1)OC[C@@H](OCc1ccc(-c3ccc(OC(F)F)nc3)cc1)C2 | 3.2 µg/mL (≈ 7.65 µM) | 0.045 µM (≈ 0.0188 µg/mL) | 0.66 µM (≈ 0.276 µg/mL) | – | 95% | 75%
